Measurements from article PMC4848510, “Foldamer-mediated manipulation of a pre-amyloid toxin” (Nature Communications, 2016).

Key:
IAPP = target: T1, IAPP (Homo sapiens, UniProt P10997); assay: LUV-catalysed IAPP fibre formation kinetic assay (ThT fluorescence); format: biochemical; details: 10 μM IAPP, 1:1 IAPP:small molecule, 630 μM LUVs DOPG:DOPC 1:1; ND = no kinetics over time of observation
T1 construct: IAPP is a 37-residue peptide co-packaged with insulin in pancreatic β-cells; purchased Genscript; Elim Biopharmaceuticals
T1 sequence (P10997 34-70 limits assumed): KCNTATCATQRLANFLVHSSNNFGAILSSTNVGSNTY
Procedure: Unless otherwise stated, LUVs used in this work were prepared from a 1:1 mixture of DOPG/DOPC. The lyophilized mixture was hydrated in 100 mM KCl, 50 mM sodium phosphate and pH 7.4 for 20 min. A 20mg ml^−1 solution of lipid in buffer was passed 21 times through a polycarbonate membrane (pore diameter=100 nm). The phospholipid content of the final material was measured using a total phosphorous assay.
(§1) Amyloid reactions were conducted in buffer containing liposome (630 μM lipid) and 20 μM ThT in a black 96-well plate. This was followed by the addition of small molecule dissolved in dimethylsulphoxide (DMSO; final DMSO concentration=0.5%, v/v). Fibre formation was initiated by the addition of IAPP stock solution. The final volume in each well was 200 μl. Kinetics of fibrillation was monitored by ThT fluorescence (excitation 450 nm and emission 485 nm), using a FluoDia T70 fluorescence plate reader (Photon Technology International, Edison, NJ, USA). The data were blank subtracted and renormalized to the maximum intensity of reactions containing only IAPP. Each kinetic trace was fit to a sigmoidal form:
(§2) where I is the fluorescence intensity, t is time, and b, m and τ are dependent fitting variables. All samples were run at least in triplicate and error bars shown in the text represent ±1 s.d.

INS-1 cells = assay: Rescue of INS-1 cells from IAPP-induced toxicity (CellTiter Blue); details: 13 μM IAPP; for rescue of IAPP-induced toxicity, co-addition: small molecule co-added 1:1, 48 h, n=24
[1] = test system: Src and its homologue, Abl; details: cited from earlier work
From the text: Dynamic binding modes, such as conformational selection, are often observed in protein:ligand interactions. A recent example is the anti-cancer drug Gleevec[8]. Gleevec binds to structurally identical sites in Src and its homologue, Abl. […] It stands to reason that the internal degrees of freedom of ligands should be similarly exploitable. However, ligand dynamics are viewed unfavourably as a result of entropy loss on binding. The non-covalent and reversible stabili ...

[2] = IAPP fibre formation in solution without LUVs (ThT); format: physicochemical, human; details: 10 μM IAPP, no LUVs, at least triplicate, ±1 s.d.
Procedure: as §1, with “form: […]” for “form:”
as §2
Supplementary Figure 1: Kinetic profiles of IAPP self-assembly. a, Three representative kinetic profiles for a standard reaction of 10 µM IAPP catalysed by the presence of 630 µM LUVs (DOPG:DOPC, 1:1, 100 nm) (inset) A representative sigmoid fit (magenta) used to extract reaction midpoints, t50. b, Representative comparison of the kinetic profiles of (10 µM) IAPP fibrillation in the absence (black) and presence (red) of 630 µM LUVs. […]

t50 / (t50 IAPP only), inhibition of LUV-catalysed fibre formation (IAPP) | Molecule | rescue of IAPP-induced toxicity, co-addition (INS-1 cells) | difference in binding affinity between Src and Abl [1] | reaction midpoint t50 of IAPP assembly into fibres in solution [2] | decrease of INS-1 viability (INS-1 cells; 48 h incubation)
no detectable effect | O=C(O[C@@H]1Cc2c(O)cc(O)cc2O[C@@H]1c1cc(O)c(O)c(O)c1)c1cc(O)c(O)c(O)c1 [EGCG, epigallocatechin gallate] | ineffective in rescuing toxicity | – | – | –
– | Cc1ccc(NC(=O)c2ccc(CN3CCN(C)CC3)cc2)cc1Nc1nccc(-c2cccnc2)n1 [Gleevec] | – | > 1,000 fold | – | –
no detectable effect | acid fuchsin | ineffective in rescuing toxicity | – | – | –
no detectable effect | Oc1ccc(/C=C/c2cc(O)cc(O)c2)cc1 [resveratrol] | ineffective in rescuing toxicity | – | – | –
– | CC[C@H](C)[C@H](NC(=O)[C@H](C)NC(=O)CNC(=O)[C@H](Cc1ccccc1)NC(=O)[C@H](CC(N)=O)NC(=O)[C@H](CC(N)=O)NC(=O)[C@H](CO)NC(=O)[C@H](CO)NC(=O)[C@H](Cc1c[nH]cn1)NC(=O)[C@@H](NC(=O)[C@H](CC(C)C)NC(=O)[C@H](Cc1ccccc1)NC(=O)[C@H](CC(N)=O)NC(=O)[C@H](C)NC(=O)[C@H](CC(C)C)NC(=O)[C@H](CCCNC(=N)N)NC(=O)[C@H](CCC(N)=O)NC(=O)[C@@H](NC(=O)[C@H](C)NC(=O)[C@@H]1CSSC[C@H](NC(=O)[C@@H](N)CCCCN)C(=O)N[C@@H](CC(N)=O)C(=O)N[C@@H]([C@@H](C)O)C(=O)N[C@@H](C)C(=O)N[C@@H]([C@@H](C)O)C(=O)N1)[C@@H](C)O)C(C)C)C(=O)N[C@@H](CC(C)C)C(=O)N[C@@H](CO)C(=O)N[C@@H](CO)C(=O)N[C@H](C(=O)N[C@@H](CC(N)=O)C(=O)N[C@H](C(=O)NCC(=O)N[C@@H](CO)C(=O)N[C@@H](CC(N)=O)C(=O)N[C@H](C(=O)N[C@@H](Cc1ccc(O)cc1)C(N)=O)[C@@H](C)O)C(C)C)[C@@H](C)O [IAPP] | – | – | 18 ± 1.4 h | 78±8%
